Assay results: PubChem BioAssay AID1259407 (Chemical Carcinogenesis Research Information System (CCRIS), 2018)
The source made the active and inactive calls. The rule behind the calls is not given here.

Tested on: CCRIS mutagenicity, Ames/micronucleus/aberration tests
Assay: CCRIS mutagenicity studies
[1] = Test System: AMES SALMONELLA TYPHIMURIUM, Strain/Indicator: TA98, Metabolic Activation: NONE, Method: PREINCUBATION

Measured: mutagenic call

Nc1nc(N)nc(-c2ccccc2)n1
inactive: [1] inactive; negative | Test System: AMES SALMONELLA TYPHIMURIUM, Strain/Indicator: TA98, Metabolic Activation: RAT, LIVER, S-9, PHENOBARBITAL AND BETA-NAPHTHOFLAVONE, Method: PREINCUBATION inactive; negative | Test System: AMES SALMONELLA TYPHIMURIUM, Strain/Indicator: TA100, Metabolic Activation: NONE, Method: PREINCUBATION inactive; negative | Test System: AMES SALMONELLA TYPHIMURIUM, Strain/Indicator: TA100, Metabolic Activation: RAT, LIVER, S-9, PHENOBARBITAL AND BETA-NAPHTHOFLAVONE, Method: PREINCUBATION inactive; negative | Test System: AMES SALMONELLA TYPHIMURIUM, Strain/Indicator: TA102, Metabolic Activation: NONE, Method: PREINCUBATION inactive; negative | Test System: AMES SALMONELLA TYPHIMURIUM, Strain/Indicator: TA102, Metabolic Activation: RAT, LIVER, S-9, PHENOBARBITAL AND BETA-NAPHTHOFLAVONE, Method: PREINCUBATION inactive; negative | Test System: AMES SALMONELLA TYPHIMURIUM, Strain/Indicator: TA104, Metabolic Activation: NONE, Method: PREINCUBATION inactive; negative | Test System: AMES SALMONELLA TYPHIMURIUM, Strain/Indicator: TA104, Metabolic Activation: RAT, LIVER, S-9, PHENOBARBITAL AND BETA-NAPHTHOFLAVONE, Method: PREINCUBATION inactive; negative | Test System: AMES SALMONELLA TYPHIMURIUM, Strain/Indicator: TA1535, Metabolic Activation: NONE, Method: PREINCUBATION inactive; negative | Test System: AMES SALMONELLA TYPHIMURIUM, Strain/Indicator: TA1535, Metabolic Activation: RAT, LIVER, S-9, PHENOBARBITAL AND BETA-NAPHTHOFLAVONE, Method: PREINCUBATION inactive; negative | Test System: AMES SALMONELLA TYPHIMURIUM, Strain/Indicator: TA1537, Metabolic Activation: NONE, Method: PREINCUBATION inactive; negative | Test System: AMES SALMONELLA TYPHIMURIUM, Strain/Indicator: TA1537, Metabolic Activation: RAT, LIVER, S-9, SODIUM PHENOBARBITAL AND 5,6-BENZOFLAVONE, Method: PREINCUBATION inactive; negative | Test System: E. COLI, Strain/Indicator: WP2UVRA/PKM101, Metabolic Activation: NONE, Method: PREINCUBATION inactive; negative | Test System: E. COLI, Strain/Indicator: WP2UVRA/PKM101, Metabolic Activation: RAT, LIVER, S-9, SODIUM PHENOBARBITAL AND 5,6-BENZOFLAVONE, Method: PREINCUBATION inactive; negative | Test System: E. COLI, Strain/Indicator: WP2UVRA, Metabolic Activation: NONE, Method: PREINCUBATION inactive; negative | Test System: E. COLI, Strain/Indicator: WP2UVRA, Metabolic Activation: RAT, LIVER, S-9, PHENOBARBITAL AND BETA-NAPHTHOFLAVONE, Method: PREINCUBATION inactive; negative

Cc1c(N(C)CS(=O)(=O)O)c(=O)n(-c2ccccc2)n1C
inactive: Test System: AMES SALMONELLA TYPHIMURIUM, Strain/Indicator: TA97A, Metabolic Activation: NONE, Method: STANDARD PLATE inactive; negative | Test System: AMES SALMONELLA TYPHIMURIUM, Strain/Indicator: TA98, Metabolic Activation: GUINEA PIG, LIVER, S-9, PCB, Method: PREINCUBATION inactive; negative | Test System: AMES SALMONELLA TYPHIMURIUM, Strain/Indicator: TA98, Metabolic Activation: HAMSTER, LIVER, S-9, PCB, Method: PREINCUBATION inactive; negative | Test System: AMES SALMONELLA TYPHIMURIUM, Strain/Indicator: TA98, Metabolic Activation: MOUSE, LIVER, S-9, PCB, Method: PREINCUBATION inactive; negative | Test System: AMES SALMONELLA TYPHIMURIUM, Strain/Indicator: TA98, Metabolic Activation: NONE, Method: STANDARD PLATE inactive; negative | Test System: AMES SALMONELLA TYPHIMURIUM, Strain/Indicator: TA98, Metabolic Activation: RAT, LIVER, S-9, PCB, Method: PREINCUBATION inactive; negative | Test System: AMES SALMONELLA TYPHIMURIUM, Strain/Indicator: TA100, Metabolic Activation: GUINEA PIG, LIVER, S-9, PCB, Method: PREINCUBATION inactive; negative | Test System: AMES SALMONELLA TYPHIMURIUM, Strain/Indicator: TA100, Metabolic Activation: HAMSTER, LIVER, S-9, PCB, Method: PREINCUBATION inactive; negative | Test System: AMES SALMONELLA TYPHIMURIUM, Strain/Indicator: TA100, Metabolic Activation: MOUSE, LIVER, S-9, PCB, Method: PREINCUBATION inactive; negative | Test System: AMES SALMONELLA TYPHIMURIUM, Strain/Indicator: TA100, Metabolic Activation: NONE, Method: STANDARD PLATE inactive; negative | Test System: AMES SALMONELLA TYPHIMURIUM, Strain/Indicator: TA100, Metabolic Activation: RAT LIVER S-9, PHENOBARBITAL, Method: STANDARD PLATE inactive; negative | Test System: AMES SALMONELLA TYPHIMURIUM, Strain/Indicator: TA102, Metabolic Activation: NONE, Method: STANDARD PLATE inactive; negative | Test System: AMES SALMONELLA TYPHIMURIUM, Strain/Indicator: TA102, Metabolic Activation: RAT LIVER S-9, PHENOBARBITAL, Method: STANDARD PLATE inactive; negative
active: Test System: AMES SALMONELLA TYPHIMURIUM, Strain/Indicator: TA97A, Metabolic Activation: RAT LIVER S-9, PHENOBARBITAL, Method: STANDARD PLATE active; positive | Test System: AMES SALMONELLA TYPHIMURIUM, Strain/Indicator: TA98, Metabolic Activation: RAT LIVER S-9, PHENOBARBITAL, Method: STANDARD PLATE active; positive | Test System: AMES SALMONELLA TYPHIMURIUM, Strain/Indicator: TA100, Metabolic Activation: RAT, LIVER, S-9, AROCLOR 1254, Method: PREINCUBATION active; positive | Test System: AMES SALMONELLA TYPHIMURIUM, Strain/Indicator: TA100, Metabolic Activation: RAT, LIVER, S-9, PCB, Method: PREINCUBATION active; positive

CC(=O)ON(C(C)=O)c1ccc(-c2ccccc2)cc1
inactive: Test System: AMES SALMONELLA TYPHIMURIUM, Strain/Indicator: TA98, Metabolic Activation: HUMAN, UROEPITHELIAL CELL, CYTOSOL, Method: PREINCUBATION inactive; negative
active: Test System: AMES SALMONELLA TYPHIMURIUM, Strain/Indicator: TA98(1,8-DNP6), Metabolic Activation: HUMAN, UROEPITHELIAL CELL, MICROSOMES, Method: PREINCUBATION active; positive | Test System: AMES SALMONELLA TYPHIMURIUM, Strain/Indicator: TA98(1,8-DNP6), Metabolic Activation: NONE, Method: PREINCUBATION active; positive | Test System: AMES SALMONELLA TYPHIMURIUM, Strain/Indicator: TA98, Metabolic Activation: DOG, BLADDER, MICROSOMES, Method: PREINCUBATION active; positive | Test System: AMES SALMONELLA TYPHIMURIUM, Strain/Indicator: TA98, Metabolic Activation: DOG, LIVER, MICROSOMES, Method: PREINCUBATION active; positive | Test System: AMES SALMONELLA TYPHIMURIUM, Strain/Indicator: TA98, Metabolic Activation: HUMAN, UROEPITHELIAL CELL, MICROSOMES, Method: PREINCUBATION active; positive | Test System: AMES SALMONELLA TYPHIMURIUM, Strain/Indicator: TA98, Metabolic Activation: HUMAN, UROEPITHELIAL CELL, S-9, Method: PREINCUBATION active; positive | [1] active; positive | Test System: AMES SALMONELLA TYPHIMURIUM, Strain/Indicator: TA98, Metabolic Activation: RAT, BLADDER, MICROSOMES, Method: PREINCUBATION active; positive | Test System: AMES SALMONELLA TYPHIMURIUM, Strain/Indicator: TA98, Metabolic Activation: RAT, LIVER, MICROSOMES, Method: PREINCUBATION active; positive | Test System: AMES SALMONELLA TYPHIMURIUM, Strain/Indicator: YG1024, Metabolic Activation: HUMAN, UROEPITHELIAL CELL, MICROSOMES, Method: PREINCUBATION active; positive | Test System: UDS HUMAN FIBROBLASTS, Strain/Indicator: THY INCORP (NON-S-PHASE), Metabolic Activation: NONE, Method: AUTORADIOGRAPHY active; positive
